Data on 14 molecules can be found in patent US20250228239A1, “MOLECULES HAVING PESTICIDAL UTILITY, AND INTERMEDIATES, COMPOSITIONS, AND PROCESSES, RELATED THERETO” (priority 2024, published 2025).

Where two headings read alike, the source gives them in different places.

Common to all, as to type: in vivo
Test [1] concerns Beet Armyworm (Spodoptera exigua, LAPHEG). In words: Bioassays on Beet Armyworm (BAW), 128-well diet tray assay. Particulars: Spodoptera exigua. The procedure, abridged: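 Second-instar larvae, one to five per well, were placed on artificial diet surface-treated with 50 μg/cm^2 compound in 90:10 acetone-water, eight wells per treatment. Trays were held 5–7 days at 25 °C, 14:10 light-dark. Percent mortality per well was averaged over eight wells.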

Test [2] has as its system Yellow Fever Mosquito (Aedes aegypti, AEDSAE). Particulars: for YFM rating: Table ABC / ABC-DP rating. In short, it runs like this:
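Larvae ~1 day old, in liver powder/water; compound from 4000 ppm DMSO stock diluted with water/acetone (90:10); 6 reps; lidded, RT, 3 d; mortality scored per well, rated.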

Test [3] has as its system Cabbage Looper (Trichoplusia ni, TRIPNI). The test is described as follows: Bioassays on Cabbage Looper (CL), 128-well diet tray assay. Particulars: Trichoplusia ni. In short, it runs like this: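 Percent mortality, averaged across eight replicate wells, after second-instar larvae (1–5 per well) fed for five to seven days on diet dosed at 50 μg/cm^2. Compound was applied in acetone-water 90:10 and dried; trays kept vented at 25° C under 14:10 photoperiod.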

Setting [4] is: Table ABC: Biological Results, species BAW, read-out: BAW.
[5] abbreviates: Table ABC: Biological Results, species YFM.
Setting [6] is: Table ABC: Biological Results, species CL, read-out: CL.
Setting [7] is: Beet Armyworm, rating class, read-out: BAW.
The mark [8] stands for this setting: Yellow Fever Mosquito, rating class.
Where [9] appears, read: Cabbage Looper, rating class, read-out: CL.
[10] abbreviates: Beet Armyworm, Table ABC / ABC-DP rating, read-out: BAW rating.
[11] abbreviates: Cabbage Looper, Table ABC / ABC-DP rating, read-out: CL rating.

As to `COc1c(F)cc(NC(=O)[C@H]2[C@H](c3ccc(F)c(Cl)c3)C2(Cl)Cl)cc1C(=O)Nc1ccc(F)cc1F` (relative stereo) [F1219, trans-5-(2,2-Dichloro-3-(3-chloro-4-fluorophenyl)cyclopropane-1-carboxamido)-N-(2,4-difluorophenyl)-3-fluoro-2-methoxybenzamide], the pest or weed control at 50 µg/cm2 in test [1] (setting [4]) and in test [3] (setting [6]) was 50 to 100% in each case. In addition, the YFM result in test [2] (setting [5]) is given as “A (80–100)”.

Regarding `CC(=O)Nc1cc(F)ccc1NC(=O)c1cc(NC(=O)[C@H]2[C@H](c3cc(Cl)cc(Cl)c3)C2(Cl)Cl)ccc1Cl` (relative stereo) [F1637, trans-N-(2-Acetamido-4-fluorophenyl)-2-chloro-5-(2,2-dichloro-3-(3,5-dichlorophenyl)cyclopropane-1-carboxamido)benzamide], the pest or weed control at 50 µg/cm2 in test [1] (setting [7]) and in test [3] (setting [9]) was 50 to 100% throughout. In addition, the YFM result in test [2] (setting [8]) is reported as “B (More than 0 – Less than 80)”.

Turning to `O=C(Nc1ccc(F)c(NC(=O)C(F)F)c1F)c1cc(NC(=O)[C@H]2[C@H](c3cccc(Br)c3)C2(Cl)Cl)ccc1Cl` (relative stereo) [F1600, trans-5-(3-(3-Bromophenyl)-2,2-dichlorocyclopropane-1-carboxamido)-2-chloro-N-(3-(2,2-difluoroacetamido)-2,4-difluorophenyl)benzamide], the pest or weed control at 50 µg/cm2 in test [1] (setting [7]) and in test [3] (setting [9]) was 50 to 100% each time. Moreover, the YFM result in test [2] (setting [8]) is reported as “A (80–100)”.

As for `O=C(CC(F)(F)F)Nc1c(F)ccc(NC(=O)c2cc(NC(=O)[C@H]3[C@H](c4cc(Cl)c(Cl)c(Cl)c4)C3(Cl)Cl)ccc2Cl)c1F` [F1651, 2-Chloro-5-((1R,3R)-2,2-dichloro-3-(3,4,5-trichlorophenyl)cyclopropane-1-carboxamido)-N-(2,4-difluoro-3-(3,3,3-trifluoropropanamido)phenyl)benzamide], the pest or weed control at 50 µg/cm2 in test [1] (setting [7]) and in test [3] (setting [9]) was 50 to 100% each time. Further, the YFM entry in test [2] (setting [8]) is listed as “A (80–100)”.

Take `CN(NC(=O)c1cc(NC(=O)[C@H]2[C@H](c3ccc(Cl)c(Cl)c3)C2(Cl)Cl)ccc1Cl)c1ccccc1` [F2513, (1R,3R)-2,2-Dichloro-N-(4-chloro-3-(2-methyl-2-phenylhydrazine-1-carbonyl)phenyl)-3-(3,4-dichlorophenyl)cyclopropane-1-carboxamide]: the pest or weed control at 50 µg/cm2 in test [1] (setting [10]) and in test [3] (setting [11]) was 50 to 100% throughout. Also, the YFM rating entry in test [2] (Yellow Fever Mosquito) was “A (80–100)”.

Consider `Cc1cc(NC(=O)[C@H]2[C@H](c3ccc(F)c(Cl)c3)C2(Cl)Cl)cc(C(=O)Nc2ccc(F)cc2F)c1F` (relative stereo) [F1137, trans-5-(2,2-Dichloro-3-(3-chloro-4-fluorophenyl)cyclopropane-1-carboxamido)-N-(2,4-difluorophenyl)-2-fluoro-3-methylbenzamide], for which the pest or weed control at 50 µg/cm2 in test [1] (setting [4]) and in test [3] (setting [6]) was 50 to 100% each time. For the same molecule, in test [2] (setting [5]), the YFM entry is listed as “A (80–100)”.

For the molecule `O=C(Nc1ccc(F)c(NC(=O)C2CC2(F)F)c1F)c1cc(NC(=O)[C@H]2[C@H](c3ccc(F)c(C(F)(F)F)c3)C2(Cl)Cl)ccc1Cl` (stereo partly drawn) [F1275, 2-Chloro-5-((1R,3R)-2,2-dichloro-3-(4-fluoro-3-(trifluoromethyl)phenyl)cyclopropane-1-carboxamido)-N-(3-(2,2-difluorocyclopropane-1-carboxamido)-2,4-difluorophenyl)benzamide], the pest or weed control at 50 µg/cm2 in test [1] (setting [4]) and in test [3] (setting [6]) was 50 to 100% throughout. In addition, the YFM entry in test [2] (setting [5]) is “A (80–100)”.

On to `COCC(=O)Nc1c(F)ccc(NC(=O)c2cc(NC(=O)[C@H]3[C@H](c4cc(Cl)c(Cl)c(Cl)c4)C3(Cl)Cl)ccc2Cl)c1F` [F1646, 2-Chloro-5-((1R,3R)-2,2-dichloro-3-(3,4,5-trichlorophenyl)cyclopropane-1-carboxamido)-N-(2,4-difluoro-3-(2-methoxyacetamido)phenyl)benzamide], for which the pest or weed control at 50 µg/cm2 in test [1] (setting [7]) and in test [3] (setting [9]) was 50 to 100% in each case. The YFM entry in test [2] (setting [8]) was “A (80–100)”.

Turning to `COc1ccc(CNc2c(F)ccc(NC(=O)c3cc(NC(=O)[C@H]4[C@H](c5ccc(F)c(C(F)(F)F)c5)C4(Cl)Cl)ccc3Cl)c2F)cc1` (relative stereo) [F1096, trans-2-Chloro-5-(2,2-dichloro-3-(4-fluoro-3-(trifluoromethyl)phenyl)cyclopropane-1-carboxamido)-N-(2,4-difluoro-3-((4-methoxybenzyl)amino)phenyl)benzamide], the pest or weed control at 50 µg/cm2 in test [1] (setting [4]) and in test [3] (setting [6]) was 50 to 100% in each case. Moreover, the YFM result in test [2] (setting [5]) is reported as “A (80–100)”.

As to `CCCCC(=O)Nc1c(F)ccc(NC(=O)c2cc(NC(=O)[C@H]3[C@H](c4ccc(F)c(C(F)(F)F)c4)C3(Cl)Cl)ccc2Cl)c1F` [F1372, 2-Chloro-5-((1R,3R)-2,2-dichloro-3-(4-fluoro-3-(trifluoromethyl)phenyl)cyclopropane-1-carboxamido)-N-(2,4-difluoro-3-pentanamidophenyl)benzamide], the pest or weed control at 50 µg/cm2 in test [1] (setting [4]) and in test [3] (setting [6]) was 50 to 100% in each case. Also, the YFM entry in test [2] (setting [5]) is “A (80–100)”.

In the case of `CNC(=O)CCNC(=O)c1cc(NC(=O)[C@H]2[C@H](c3cc(Cl)cc(Cl)c3)C2(Cl)Cl)ccc1Cl` (relative stereo) [F2070, trans-2-Chloro-5-(2,2-dichloro-3-(3,5-dichlorophenyl)cyclopropane-1-carboxamido)-N-(3-(methylamino)-3-oxopropyl)benzamide], the pest or weed control at 50 µg/cm2 in test [1] (setting [10]) and in test [3] (setting [11]) was 50 to 100% throughout. For the same molecule, the YFM rating entry in test [2] (Yellow Fever Mosquito) is “A (80–100)”.

`O=C(Nc1ccc(F)c(NC(=O)C(F)F)c1F)c1cc(NC(=O)[C@H]2[C@H](c3cccc(Cl)c3)C2(Cl)Cl)ccc1Cl` (relative stereo) [F1601, trans-2-Chloro-5-(2,2-dichloro-3-(3-chlorophenyl)cyclopropane-1-carboxamido)-N-(3-(2,2-difluoroacetamido)-2,4-difluorophenyl)benzamide]: the pest or weed control at 50 µg/cm2 in test [1] (setting [7]) and in test [3] (setting [9]) was 50 to 100% each time. Moreover, the YFM result in test [2] (setting [8]) is given as “A (80–100)”.

As to `O=C(Nc1ccc(F)c(NC(=O)C2CCOC2)c1F)c1cc(NC(=O)[C@H]2[C@H](c3ccc(Cl)c(Cl)c3)C2(Cl)Cl)ccc1Cl` (stereo partly drawn) [F1610, N-(3-(2-Chloro-5-((1R,3R)-2,2-dichloro-3-(3,4-dichlorophenyl)cyclopropane-1-carboxamido)benzamido)-2,6-difluorophenyl)tetrahydrofuran-3-carboxamide], the pest or weed control at 50 µg/cm2 in test [1] (setting [7]) and in test [3] (setting [9]) was 50 to 100% throughout. For the same molecule, the YFM entry in test [2] (setting [8]) is “A (80–100)”.

Regarding `C=C(F)C(=O)Nc1c(F)ccc(NC(=O)c2cc(NC(=O)[C@H]3[C@H](c4ccc(F)c(C(F)(F)F)c4)C3(Cl)Cl)ccc2Cl)c1F` [F1870, 2-Chloro-5-((1R,3R)-2,2-dichloro-3-(4-fluoro-3-(trifluoromethyl)phenyl)cyclopropane-1-carboxamido)-N-(2,4-difluoro-3-(2-fluoroacrylamido)phenyl)benzamide], the pest or weed control at 50 µg/cm2 in test [1] (setting [10]) and in test [3] (setting [11]) was 50 to 100% throughout. Besides, the YFM rating result in test [2] (Yellow Fever Mosquito) is listed as “A (80–100)”.
